This is an account of results in patent US20250353828A1, “SUBSTITUTED BIARYL ENDOCHIN-LIKE QUINOLONES WITH ENHANCED ANTIPARASITIC ACTIVITY” (Oregon Health & Science University, priority 2022, published 2025).

For data set [1], the system named is P. falciparum Tm90-C2B (atovaquone-resistant clinical isolate). The data set is described as follows: In vitro antiplasmodial activity, SYBR Green I assay, Tm90-C2B. Type of data set: cell-based. Particulars: Plasmodium falciparum; Tm90-C2B strain; 72 h incubation; averages of quadruplicate with (95% confidence intervals); read-out: P. falciparum IC50 values, nM Tm90-C2B. How it is done: (§1) Rationale for Synthesis of a 3-Biaryl Version of ELQ-300. […] All of this information is stored in a database with information relating to chemical structure, physical chemical properties, cross resistance patterns, mammalian cell cytotoxicity, enzyme inhibitor profiles, and synthesis details. […] We employed the SyBr Green assay and the plates were incubated for 72 hours before harvesting^18, 19. […] Stock solutions were freshly prepared in DMSO.
(§2) Plasmodium falciparum Culture. Laboratory strains of P. falciparum were cultured in human erythrocytes by standard methods. The parasites were grown in culture medium with fresh human erythrocytes maintained at 2% hematocrit at 37° C. in low-oxygen conditions (5% O2, 5% CO2, […] balance N2). […] Cultures were maintained at less than 10% parasitemia by transfer of infected cells to fresh erythrocytes and culture medium every 3 or 4 days.
(§3) In vitro drug susceptibility assays. SYBR green I assay. In vitro antiplasmodial activity was assessed using a published SYBR Green I fluorescence-based method. The drugs were added to 96-well plates using 2-fold serial dilutions in complete medium. […] Asynchronous P. falciparum parasites were diluted with uninfected erythrocytes and added to the wells to give a final culture volume of 100 μl at 2% hematocrit and 0.2% parasitemia. […] The parasites were then lysed by adding 100 μl of SYBR green I lysis buffer containing 0.2 μl/ml SYBR green I dye (10,000×) in 20 mM Tris (pH 7.5), 5 mM EDTA, 0.008% (wt/vol) saponin, and 0.08% (vol/vol) Triton X-100. The plates were incubated at room temperature for an hour in the dark. […] If the IC50 value fell outside of the initial tested range then the range was adjusted up or down and the assay was repeated.

Data set [2] can be described thus: HepG2 cytotoxicity, TiterGlo ATP luminescence, galactose medium. The class given is cell-based, human. Particulars: human. How it is done: […]. Of course, enhanced potency is desirable only if unaccompanied by enhanced toxicity. […] […]. The incubation period for these experiments was 48 hours.
Data set [3] addresses T1, human liver cytochrome bc1 complex (Homo sapiens, UniProt P00156).
T1 construct: human host cytochrome bc1 complex isolated from human liver tissue; from tissue; host or cells: human liver tissue
The data set is described as follows: Inhibition of human cytochrome bc1 complex. The following applies: complex isolated from human liver tissue. Type of data set: biochemical. From the text:
Human Cytochrome bc1 Assays.

Data set [4] deals with T2, P. falciparum cytochrome bc1 complex (Plasmodium falciparum, UniProt Q02768).
T2 construct: endogenous in cells
T2 sequence (Q02768 1-376): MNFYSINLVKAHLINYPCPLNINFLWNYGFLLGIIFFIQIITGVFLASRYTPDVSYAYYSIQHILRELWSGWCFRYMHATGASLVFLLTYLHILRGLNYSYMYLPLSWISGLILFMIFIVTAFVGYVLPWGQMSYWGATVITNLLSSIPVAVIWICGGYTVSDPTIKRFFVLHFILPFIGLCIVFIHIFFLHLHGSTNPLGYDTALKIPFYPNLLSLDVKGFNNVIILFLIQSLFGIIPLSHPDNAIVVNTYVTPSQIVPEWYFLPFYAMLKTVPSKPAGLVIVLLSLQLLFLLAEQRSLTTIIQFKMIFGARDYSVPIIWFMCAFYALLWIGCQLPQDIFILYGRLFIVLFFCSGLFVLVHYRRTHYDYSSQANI
The data set is described as follows: biochemical. Particulars: cytochrome bc1 activity from P. falciparum mitochondria. From the text:
(§4) Isolation of Plasmodium falciparum Mitochondria and Ubiquinol-Cytochrome c Oxidoreductase Assay.

Data set [5] concerns P. yoelii blood stage infection in mice. The data set is described as follows: In vivo single-dose cure against murine malaria. The following applies: for Single dose cure: lowest single dose that cures all 4 mice, P. yoelii, prodrugs dosed on molar equivalency to parent drug. How it is done: Animals that remained aparasitemic out to […] were scored as cures.
In Vivo Single-Dose Efficacy against Murine Malaria. The effectiveness of selected 3-biarylELQs and prodrugs was assessed vs. the blood stage infection for single dose cures. Mice are infected iv with 3.5×10^4 P. yoelii infected RBCs as described for the 4-day test above. Drug administration occurred on the day after inoculation (Day 1). Test agents were dissolved in PEG-400 and administered ig once. On the 5th day blood films were prepared and % parasitemia was assessed. Animals remaining parasite-free for 30 days after drug administration were considered cured. The initial dosing range was: 0.5, 1, 2.5, 5, 10 mg/kg, including a control. Experiments were performed with 4 mice per group to ensure statistical accuracy. The reported parameter for these studies is the lowest single dose that provides a cure to all 4 animals in the group.

The test system of data set [6] is P. falciparum D6 strain (drug sensitive). Put plainly: In vitro antiplasmodial activity, SYBR Green I assay, D6 strain. The class given is cell-based, Plasmodium falciparum. The following applies: Plasmodium falciparum; D6 strain; 72 h incubation; averages of quadruplicate with (95% confidence intervals); read-out: P. falciparum IC50 values, nM D6. How it is done: as §1, §2, §3

Data set [7] is described as follows: Appearance, behaviour and weight observations in the in vivo efficacy-testing model. The following applies: mice, at any dose level of the efficacy tests. Here is the method: (§5) In Vivo Efficacy against Murine Malaria. The P. yoelii 4-day test monitors suppression of patent infection in female CF1 mice. The test began with the inoculation (iv) of parasitized erythrocytes (3.5×10^4/P. yoelli) (from a donor animal) on the first day of the experiment (D0). […] Initially the 3-biaryl-ELQs were tested at doses of 0.0025, 0.005, 0.01, 0.03, 0.1, 0.3, 1.0 and 10 mg/kg/day, including a vehicle-only (PEG400) control. After completion of drug treatment, a blood sample was collected (by pricking the tail vein) for determination of parasite burden beginning on the day after the final dose (D5). Percent parasitemia is assessed by direct microscopic analysis of Giemsa-stained blood smears. […] Animals with observable parasitemia following the experiment were euthanized; animals cleared of parasites from the bloodstream were observed daily with assessment of parasitemia performed weekly until day 30, at which point the animal(s) were scored as cured of infection. […] Non-linear regression analysis is used for objective determination of ED50's and ED90's from the accumulated data as well as the Non-Recrudescence Dose (NRD). The 4-day test protocol was reviewed and approved by the local IACUC board at the Portland VA Medical Center. Experiments were performed with 4 mice per group to ensure statistical accuracy.

Data set [8] concerns P. yoelii (Kenya Strain) blood stage infection in mice. The data set is described as follows: 4-day Peters test against murine malaria. Type of data set: in vivo. How it is done:
On Day 5 a drop of blood was taken from the tail and a blood smear was prepared, fixed with methanol, and stained with Giemsa. The operator then examined the stained smear microscopically to determine percent parasitemia. Dosages of 0.0025, 0.005, 0.01, 0.03, 0.1, 0.3, 1.0 and 10 mg/kg/day were used for the experiment. […] In this model animals were inoculated exactly as for the 4-day test on Day 0 however drug was administered only on Day 1 while the operator made smears on Day 5 and again weekly thereafter for animals that remained aparasitemic. Animals that remained aparasitemic out to […] were scored as cures.
as §5

Data set [9] has as its target T2, P. falciparum cytochrome bc1 complex. The following applies: data taken from Nilsen et al., 2013 (a) or Frueh et al., 2017 (b); cited from earlier work.
The test system of data set [10] is P. falciparum cytochrome bc1 complex. Put plainly: biochemical. Particulars: based on enzyme inhibitory activity.
Text: as §4

Data set [11] relates to P. falciparum Dd2 strain (multidrug resistant). Put plainly: microbe, parasite or virus in culture. Type of data set: cell-based, Plasmodium falciparum. The following applies: read-out: P. falciparum IC50 values, nM Dd2; Dd2 strain; 72 h incubation; averages of quadruplicate with (95% confidence intervals). How it is done: as §1, §2, §3
Data set [12] addresses T1, human liver cytochrome bc1 complex. The following applies: data taken from Nilsen et al., 2013 (a) or Frueh et al., 2017 (b); cited from earlier work.
For data set [13], the system named is P. falciparum D1 clone (ELQ-300 resistant). Put plainly: microbe, parasite or virus in culture. The following applies: Plasmodium falciparum, 72 h, read-out: P. falciparum IC50 values, nM D1. The class given is cell-based.
[14] abbreviates: P. yoelii in mice, oral gavage in PEG400 on Days 1-4, prodrugs dosed on molar equivalency to parent drug.

Each structure is given as a SMILES string. Where two headings read alike, the source gives them in different places.

What is called IC50 is the midpoint of a concentration-inhibition curve. By EC50 is commonly meant the concentration giving half of the maximal effect. A low value points to an effect from little substance.

`CCOC(=O)OCOc1c(-c2ccc(-c3ccc(OC(F)(F)F)cc3)cc2)c(C)nc2cc(OC)c(Cl)cc12` [ELQ-598, ((6-chloro-7-methoxy-2-methyl-3-(4′-(trifluoromethoxy)-[1,1′-biphenyl]-4-yl)quinolin-4-yl)oxy)methyl ethyl carbonate]: the IC50 in data set [1] was determined as 0.8 nM. Besides, the EC50 at 48 h in [2] was more than 10000 nM. Also, in data set [3], the IC50 is more than 10000 nM. In addition, in data set [4], the “P. falciparum cytochrome bc1, nM” value is “only feeble inhibitory activity”. Besides, the “lowest fully protective single dose cure” value in data set [5] (P. yoelii in mice, dose on Day 1, lowest dose tested to date, as parent drug equivalent) was found to be 0.5 mg/kg. The “more effective as a single dose cure compared directly to ELQ-331” value in [5] (blood stage malaria infections in mice) was “at least 6 times”. For the same compound, in [5] (dose on Day 1), the Single dose cure is on record as not above 0.5 mg/kg/day. Also, the “lowest fully protective single dose cure, mg/kg of prodrug” value in data set [5] (same result expressed as mass of prodrug) is 0.6 mg/kg. In addition, the IC50 in [6] is 1.5 nM. For the same compound, the “appearance, behavioral or weight changes after dosing” value in data set [7] was “no appearance, behavioral or weight changes”. For the same compound, the “ED50, ED90 and NRD lower than for ELQ-300 and ELQ-331” value in [8] (4-day test) is recorded as “roughly 3 fold”. For the same compound, in [8] (setting [14]), the “4-day Peters Test Results ED50” value is listed as 0.006 mg/kg/day, the “4-day Peters Test Results ED90” value was 0.01 mg/kg/day and the “4-day Peters Test Results NRD (non-recrudescence dose)” value came out at 0.1 mg/kg/day.
With `COc1cc2[nH]c(C)c(-c3ccc(Oc4ccc(OC(F)(F)F)cc4)cc3)c(=O)c2cc1Cl` [ELQ-300, reference compound], the IC50 in data set [1] is 2.5 nM; in [9], 0.56 nM; in [11] it was 4.2 nM; in data set [12], more than 10000 nM; in data set [13] it was 168 nM; in data set [6], 3.3 nM. In data set [2], this compound registered an EC50 at 48 h of more than 10000 nM. Also, the “Selectivity Index Human/Pf cyt. bc1” value in data set [10] is ≥18,000. The Single dose cure in data set [5] (dose on Day 1) is recorded as more than 25 mg/kg/day. Also, the “4-day Peters Test Results ED90” value in [8] (setting [14]) came out at 0.06 mg/kg/day. Besides, in data set [8] (setting [14]), the “4-day Peters Test Results NRD (non-recrudescence dose)” value turned out to be 1.0 mg/kg/day.
